Measured values as given in paper PMC7026418, “The kinase polypharmacology landscape of clinical PARP inhibitors” (Scientific Reports, 2020).
Like-named read-outs stand apart in the source and are kept apart here.

Legend:
Test in all cases: biochemical
Parameters in all cases: DiscoveRx KINOMEscan active site-directed competition binding; percent of control kinase bound to immobilised ligand
CDKL3 = CDKL3 (Homo sapiens, UniProt Q8IVW4)
GRK7 = molecular target: T1, GRK7 (Homo sapiens, UniProt Q8WTQ7)
T1 sequence (Q8WTQ7 1-553): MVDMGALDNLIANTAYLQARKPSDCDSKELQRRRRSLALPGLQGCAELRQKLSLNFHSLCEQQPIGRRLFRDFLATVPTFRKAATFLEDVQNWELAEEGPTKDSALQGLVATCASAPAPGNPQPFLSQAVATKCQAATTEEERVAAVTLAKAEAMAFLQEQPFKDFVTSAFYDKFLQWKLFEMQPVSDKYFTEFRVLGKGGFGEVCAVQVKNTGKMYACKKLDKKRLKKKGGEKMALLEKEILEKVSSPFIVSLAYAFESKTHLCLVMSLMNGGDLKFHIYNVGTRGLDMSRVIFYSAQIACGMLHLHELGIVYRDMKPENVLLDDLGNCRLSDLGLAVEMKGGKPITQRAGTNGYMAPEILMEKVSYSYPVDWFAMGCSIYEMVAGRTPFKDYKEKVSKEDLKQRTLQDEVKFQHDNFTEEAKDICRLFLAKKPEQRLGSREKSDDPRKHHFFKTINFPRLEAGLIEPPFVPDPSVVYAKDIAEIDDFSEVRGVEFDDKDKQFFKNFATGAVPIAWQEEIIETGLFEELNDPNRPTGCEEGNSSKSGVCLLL

PRKD3 = molecular target: T2, PRKD3 (Homo sapiens, UniProt O94806)
T2 sequence (O94806 1-890): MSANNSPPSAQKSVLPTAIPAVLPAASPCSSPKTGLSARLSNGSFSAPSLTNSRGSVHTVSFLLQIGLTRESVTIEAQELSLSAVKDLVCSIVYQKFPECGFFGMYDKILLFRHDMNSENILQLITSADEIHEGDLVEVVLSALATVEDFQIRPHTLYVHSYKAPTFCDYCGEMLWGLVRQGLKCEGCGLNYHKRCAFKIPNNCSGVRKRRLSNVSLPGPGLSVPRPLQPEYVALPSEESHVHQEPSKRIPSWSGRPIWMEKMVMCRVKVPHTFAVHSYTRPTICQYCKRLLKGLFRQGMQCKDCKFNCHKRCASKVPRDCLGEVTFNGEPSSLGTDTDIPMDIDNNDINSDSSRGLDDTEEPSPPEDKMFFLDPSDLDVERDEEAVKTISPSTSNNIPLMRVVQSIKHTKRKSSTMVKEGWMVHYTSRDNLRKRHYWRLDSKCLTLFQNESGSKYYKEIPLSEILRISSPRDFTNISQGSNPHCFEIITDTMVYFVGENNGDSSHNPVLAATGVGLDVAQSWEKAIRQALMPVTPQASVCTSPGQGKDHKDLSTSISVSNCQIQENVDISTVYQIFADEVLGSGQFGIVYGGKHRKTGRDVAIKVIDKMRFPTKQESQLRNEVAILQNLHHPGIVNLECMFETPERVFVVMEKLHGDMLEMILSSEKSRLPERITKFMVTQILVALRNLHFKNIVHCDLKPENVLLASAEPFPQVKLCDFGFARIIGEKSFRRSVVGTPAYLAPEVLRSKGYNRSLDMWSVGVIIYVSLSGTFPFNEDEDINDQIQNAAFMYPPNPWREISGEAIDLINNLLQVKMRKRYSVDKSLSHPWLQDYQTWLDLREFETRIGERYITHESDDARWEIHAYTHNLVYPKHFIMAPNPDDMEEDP

[1] = molecular target: T3, TYK2(JH2domain-pseudokinase) (Homo sapiens, UniProt P29597)
T3 construct: JH2domain-pseudokinase
T3 sequence (P29597 whole entry): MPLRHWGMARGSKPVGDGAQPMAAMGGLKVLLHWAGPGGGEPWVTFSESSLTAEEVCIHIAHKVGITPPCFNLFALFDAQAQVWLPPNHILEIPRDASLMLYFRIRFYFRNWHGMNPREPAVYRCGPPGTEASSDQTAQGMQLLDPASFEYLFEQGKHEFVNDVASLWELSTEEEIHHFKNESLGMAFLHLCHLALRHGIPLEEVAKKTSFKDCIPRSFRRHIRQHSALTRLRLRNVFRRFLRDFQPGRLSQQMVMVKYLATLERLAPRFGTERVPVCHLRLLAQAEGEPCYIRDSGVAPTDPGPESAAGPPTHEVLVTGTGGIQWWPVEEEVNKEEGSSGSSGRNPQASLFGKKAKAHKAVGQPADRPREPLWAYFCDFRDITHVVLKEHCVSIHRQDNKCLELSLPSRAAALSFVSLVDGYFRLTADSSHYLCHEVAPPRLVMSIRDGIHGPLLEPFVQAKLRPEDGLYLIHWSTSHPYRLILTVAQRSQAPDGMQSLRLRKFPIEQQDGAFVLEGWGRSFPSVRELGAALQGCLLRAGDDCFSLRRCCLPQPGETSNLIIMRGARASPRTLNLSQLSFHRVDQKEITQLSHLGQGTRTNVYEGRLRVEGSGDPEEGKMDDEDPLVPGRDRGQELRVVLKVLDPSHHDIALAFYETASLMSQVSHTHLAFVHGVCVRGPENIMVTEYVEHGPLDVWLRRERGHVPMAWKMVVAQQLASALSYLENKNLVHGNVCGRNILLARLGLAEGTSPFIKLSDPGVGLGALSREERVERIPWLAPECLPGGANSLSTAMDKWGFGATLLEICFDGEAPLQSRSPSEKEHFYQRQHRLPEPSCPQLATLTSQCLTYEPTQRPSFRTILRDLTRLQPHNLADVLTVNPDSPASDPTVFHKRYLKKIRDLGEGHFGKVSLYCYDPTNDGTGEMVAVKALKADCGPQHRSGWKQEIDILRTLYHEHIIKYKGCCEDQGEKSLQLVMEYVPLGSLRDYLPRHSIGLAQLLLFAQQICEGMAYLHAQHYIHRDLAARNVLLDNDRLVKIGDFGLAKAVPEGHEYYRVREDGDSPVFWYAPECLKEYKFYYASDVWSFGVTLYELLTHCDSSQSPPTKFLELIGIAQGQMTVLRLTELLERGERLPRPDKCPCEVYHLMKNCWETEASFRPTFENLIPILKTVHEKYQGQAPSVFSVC

ULK3 = molecular target: T4, ULK3 (Homo sapiens, UniProt Q6PHR2)
T4 sequence (Q6PHR2 1-472): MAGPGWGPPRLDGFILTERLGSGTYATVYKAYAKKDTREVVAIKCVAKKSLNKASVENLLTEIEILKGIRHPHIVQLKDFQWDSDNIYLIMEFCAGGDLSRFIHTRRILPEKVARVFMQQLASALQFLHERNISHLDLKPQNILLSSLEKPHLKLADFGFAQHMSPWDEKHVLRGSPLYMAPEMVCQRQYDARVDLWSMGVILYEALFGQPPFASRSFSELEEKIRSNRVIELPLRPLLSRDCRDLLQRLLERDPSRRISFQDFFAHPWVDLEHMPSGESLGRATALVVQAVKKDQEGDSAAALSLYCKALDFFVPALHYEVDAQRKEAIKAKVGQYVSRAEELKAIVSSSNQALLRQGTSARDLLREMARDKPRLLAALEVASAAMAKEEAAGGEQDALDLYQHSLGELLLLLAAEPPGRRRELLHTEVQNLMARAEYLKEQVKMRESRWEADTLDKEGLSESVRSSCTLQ

[2] = read-out: Niraparib (MK-4827) / %Ctrl @ 10000nM
[3] = read-out: Olaparib / %Ctrl @ 10000nM
[4] = read-out: Rucaparib / %Ctrl @ 10000nM, binding competition, % of control
[5] = read-out: Talazoparib (BMN 673) / %Ctrl @ 10000nM

Chain of CDKL3 (Q8IVW4 whole entry): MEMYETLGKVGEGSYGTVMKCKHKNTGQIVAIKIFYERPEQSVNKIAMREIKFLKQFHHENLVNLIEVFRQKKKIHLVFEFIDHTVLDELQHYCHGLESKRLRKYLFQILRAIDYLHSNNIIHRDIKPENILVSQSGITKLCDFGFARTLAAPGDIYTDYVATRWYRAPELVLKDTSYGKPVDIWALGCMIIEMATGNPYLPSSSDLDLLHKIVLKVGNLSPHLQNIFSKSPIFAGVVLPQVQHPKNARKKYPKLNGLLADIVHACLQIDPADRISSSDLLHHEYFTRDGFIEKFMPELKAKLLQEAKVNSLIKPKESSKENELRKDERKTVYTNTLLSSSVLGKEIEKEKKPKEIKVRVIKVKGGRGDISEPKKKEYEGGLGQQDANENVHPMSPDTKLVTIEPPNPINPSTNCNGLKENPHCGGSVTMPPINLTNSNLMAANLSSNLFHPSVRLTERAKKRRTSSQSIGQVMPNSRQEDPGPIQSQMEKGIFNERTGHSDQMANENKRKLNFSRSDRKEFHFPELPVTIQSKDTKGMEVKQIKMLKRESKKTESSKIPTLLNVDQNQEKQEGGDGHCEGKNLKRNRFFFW

NC(=O)c1cccc2cn(-c3ccc([C@@H]4CCCNC4)cc3)nc12 [Niraparib] was tested, and the percent of control binding at 10 µM (CDKL3; [2]) was 64%, the percent of control binding at 10 µM (GRK7; [2]) was 88% and the percent of control binding at 10 µM (PRKD3; [2]) was 76%. The percent of control binding at 10 µM [1, 2] was 37% and the percent of control binding at 10 µM (ULK3; [2]) was 100%.
Compound O=C(c1cc(Cc2n[nH]c(=O)c3ccccc23)ccc1F)N1CCN(C(=O)C2CC2)CC1 [Olaparib] has a percent of control binding at 10 µM (CDKL3; [3]) of 100%, a percent of control binding at 10 µM (GRK7; [3]) of 85% and a percent of control binding at 10 µM (PRKD3; [3]) of 83%. For the same compound, the percent of control binding at 10 µM [1, 3] was 79% and the percent of control binding at 10 µM (ULK3; [3]) was 80%.
Work on CNCc1ccc(-c2[nH]c3cc(F)cc4c3c2CCNC4=O)cc1 [Rucaparib] yielded a percent of control binding at 10 µM (CDKL3; [4]) of 100%, a percent of control binding at 10 µM (GRK7; [4]) of 48% and a percent of control binding at 10 µM (PRKD3; [4]) of 78%. For the same compound, the percent of control binding at 10 µM [1, 4] was 7.6% and the percent of control binding at 10 µM (ULK3; [4]) was 70%.
For Cn1ncnc1[C@H]1c2n[nH]c(=O)c3cc(F)cc(c23)N[C@@H]1c1ccc(F)cc1 [Talazoparib], the percent of control binding at 10 µM (CDKL3; [5]) was 97%, the percent of control binding at 10 µM (GRK7; [5]) was 100% and the percent of control binding at 10 µM (PRKD3; [5]) was 89%. For the same compound, the percent of control binding at 10 µM [1, 5] was 84% and the percent of control binding at 10 µM (ULK3; [5]) was 84%.
